Laboratory results taken from patent US20240041042A1, “1-(PYRIDYL)-5-AZINYLPYRAZOLE DERIVATIVES, AND THEIR USE FOR CONTROL OF UNDESIRED PLANT GROWTH” (Bayer Aktiengesellschaft, priority 2020, published 2024).
Where two headings read alike, the source gives them in different places.

Columns and labels:
Type in all cases: in vivo
[1] = system: Verconica persica (VERPE); test: Post-emergence herbicidal action against VERPE
How it was run: (§1)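 Values are percent visual activity (0% like control, 100% plants dead) after about 3 weeks in the greenhouse. Treatment: post-emergence spray at one-leaf stage, 600 l/ha spray volume, 0.5% additive, doses 320 g/ha or lower.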

[2] = system: Polygonum convolvulus (POLCO); test: Pre-emergence herbicidal action against POLCO
How it was run: (§2)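 Read-out is visual percent damage relative to untreated pots, with 100% meaning dead plants and 0% meaning no difference, assessed roughly three weeks after treatment. Compounds were applied pre-emergence to the covering soil at up to 320 g/ha.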

[3] = system: Amaranthus retroflexus (AMARE); test: Post-emergence herbicidal action against AMARE
How it was run: as §1

[4] = system: Echinochloa crus-galli (ECHCG); test: Pre-emergence herbicidal action against ECHCG
How it was run: as §2

[5] = system: Triticum aestivum (TRZAS); settings: crop plant compatibility, effect vs untreated controls
How it was run: (§3)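 Effects were read visually as % versus untreated controls (0% = no effect, 100% = death) about 3 weeks post-treatment. Application was a post-emergence spray at the one-leaf stage of WP/EC formulations with 0.5% additive at 600 l/ha. Different dosages are denoted a, b and c.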

Oryza sativa (ORYSA) = settings: crop plant compatibility
How it was run: as §3

[6] = system: Pharbitis purpurea (PHBPU); test: Post-emergence herbicidal action against PHBPU
How it was run: as §1

Setaria viridis (SETVI) [7] = test: Post-emergence herbicidal action against SETVI
How it was run: as §1

Viola tricolor (VIOTR) [8] = test: Pre-emergence herbicidal action against VIOTR
How it was run: as §2

[9] = system: Verconica persica (VERPE); test: Pre-emergence herbicidal action against VERPE
How it was run: as §2

[10] = system: Amaranthus retroflexus (AMARE); test: Pre-emergence herbicidal action against AMARE; settings: visual scoring after about 3 weeks vs untreated controls
How it was run: as §2

[11] = system: Echinochloa crus-galli (ECHCG); test: Post-emergence herbicidal action against ECHCG
How it was run: as §1

[12] = system: Pharbitis purpurea (PHBPU); test: Pre-emergence herbicidal action against PHBPU
How it was run: as §2

[13] = system: Matricaria inodora (MATIN); test: Pre-emergence herbicidal action against MATIN
How it was run: as §2

Setaria viridis (SETVI) [14] = test: Pre-emergence herbicidal action against SETVI
How it was run: as §2

Lolium rigidum (LOLRI) [15] = test: Pre-emergence herbicidal action against LOLRI
How it was run: as §2

Zea mays (ZEAMX) = settings: for Post-emergence action against ZEAMX in % (crop plant compatibility): 20 g/ha, effect in comparison to untreated controls; for Post-emergence action against ZEAMX in %: crop plant compatibility, 80 g/ha, effect vs untreated controls
How it was run: as §3

[16] = system: Alopecurus myosuroides (ALOMY); test: Pre-emergence herbicidal action against ALOMY; settings: scored visually after about 3 weeks, 100% = plants have died
How it was run: as §2

[17] = system: Polygonum convolvulus (POLCO); test: Post-emergence herbicidal action against POLCO; settings: dosage 80 g/ha
How it was run: as §1

Avena fatua (AVEFA) [18] = test: Post-emergence herbicidal action against AVEFA; settings: 80 g/ha, visual rating about 3 weeks after treatment
How it was run: as §1

Avena fatua (AVEFA) [19] = test: Pre-emergence herbicidal action against AVEFA; settings: 320 g/ha, visual scoring after about 3 weeks vs untreated controls
How it was run: as §2

[20] = system: Alopecurus myosuroides (ALOMY); test: Post-emergence herbicidal action against ALOMY; settings: 80 g/ha, visual rating about 3 weeks after treatment vs untreated controls (100% = plants have died, 0% = like control plants)
How it was run: as §1

Viola tricolor (VIOTR) [21] = test: Post-emergence herbicidal action against VIOTR; settings: 80 g/ha
How it was run: as §1

[22] = system: Matricaria inodora (MATIN); test: Post-emergence herbicidal action against MATIN; settings: dosage 80 g/ha
How it was run: as §1

[23] = system: Abutilon theophrasti (ABUTH); test: Post-emergence herbicidal action against ABUTH; settings: 80 g/ha, visual rating about 3 weeks after treatment vs untreated controls (100% = plants have died, 0% = like control plants)
How it was run: as §1

Lolium rigidum (LOLRI) [24] = test: Post-emergence herbicidal action against LOLRI; settings: dosage 80 g/ha
How it was run: as §1

[25] = 80 g/ha, effect in comparison to untreated controls
[26] = 80 g/ha, visual rating about 3 weeks after treatment vs untreated controls (100% = plants have died, 0% = like control plants)
[27] = 20 g/ha, effect vs untreated controls

SMILES | Post-emergence action against VERPE in % ([1]; dosage 80 g/ha) [%] | Pre-emergence action against POLCO in % ([2]; dosage 320 g/ha) [%] | Pre-emergence action against ECHCG in % ([4]; dosage 320 g/ha) [%] | Pre-emergence action against VIOTR in % (Viola tricolor (VIOTR) [8]; 320 g/ha, Viola tricolor) [%] | Pre-emergence action against VIOTR in % (Viola tricolor (VIOTR) [8]; dosage 80 g/ha) [%] | Pre-emergence action against VERPE in % ([9]; dosage 320 g/ha) [%] | Pre-emergence action against AMARE in % ([10]; 320 g/ha) [%] | Pre-emergence action against PHBPU in % ([12]; dosage 320 g/ha) [%] | Pre-emergence action against MATIN in % ([13]; dosage 320 g/ha) [%] | Post-emergence action against AMARE in % [3, 26] [%] | Pre-emergence action against SETVI in % (Setaria viridis (SETVI) [14]; dosage 320 g/ha) [%] | Pre-emergence action against LOLRI in % (Lolium rigidum (LOLRI) [15]; dosage 320 g/ha) [%] | Pre-emergence action against ECHCG in % ([4]; dosage 80 g/ha) [%] | Post-emergence action against TRZAS in % ([5]; 20 g/ha) [%] | Post-emergence action against ORYSA in % (Oryza sativa (ORYSA); [27]) [%] | Post-emergence action against ZEAMX in % (crop plant compatibility) (Zea mays (ZEAMX)) [%] | Pre-emergence action against ALOMY ([16]; 80 g/ha) [%] | Pre-emergence action against ALOMY ([16]; 320 g/ha) [%] | Post-emergence action against AVEFA in % (Avena fatua (AVEFA) [18]) [%] | Pre-emergence action against AVEFA in % (Avena fatua (AVEFA) [19]) [%] | other results
O=C(COc1nn(-c2ncccc2C(F)(F)F)c(-c2cncc(F)c2)c1Br)OCC1CCOC1 (racemic) [Example I-162] | 80 | 100 | 80 | 100 | 80 | 90 | 90 | 90 |  |  |  |  |  |  |  |  |  |  |  |  | Post-emergence action against VERPE in % ([1]; 320 g/ha, VERPE): 90%; Post-emergence action against AMARE in % ([3]; 320 g/ha, visual rating about 3 weeks after treatment): 80%; Post-emergence action against TRZAS in % ([5]; 80 g/ha): 10%; Post-emergence action against ORYSA in % (Oryza sativa (ORYSA); [25]): 0%; Post-emergence action against PHBPU in % ([6]; dosage 320 g/ha): 90%; Post-emergence action against SETVI in % (Setaria viridis (SETVI) [7]; dosage 320 g/ha): 80%; Pre-emergence action against VERPE in % ([9]; dosage 80 g/ha): 90%; Post-emergence action against ECHCG in % ([11]; dosage 320 g/ha): 80%
CS(=O)(=O)NC(=O)COc1nn(-c2ncccc2F)c(-c2ccc(F)nc2)c1Br [Example I-44] | 80 | 90 | 100 | 100 | 100 | 80 | 90 |  | 90 | 80 | 100 | 100 | 80 | 20 | 20 | 0 | 100 | 100 | 90 | 90 | Pre-emergence action against POLCO in % ([2]; dosage 80 g/ha): 90%; Pre-emergence action against SETVI in % (Setaria viridis (SETVI) [14]; dosage 80 g/ha): 90%; Pre-emergence action against LOLRI in % (Lolium rigidum (LOLRI) [15]; dosage 80 g/ha): 80%; Post-emergence action against ZEAMX in % (Zea mays (ZEAMX)): 10%; Post-emergence action against POLCO in % [17]: 90%; Pre-emergence action against AMARE in % ([10]; 80 g/ha): 80%; Post-emergence action against ALOMY in % [20]: 80%
CCOC(=O)COc1nn(-c2ncccc2F)c(-c2ccc(F)nc2)c1Br [Example I-51] | 80 | 90 | 90 | 100 | 100 | 100 | 100 | 90 | 90 | 90 | 100 | 90 | 80 | 20 | 20 | 20 | 90 | 100 | 90 | 90 | Pre-emergence action against MATIN in % ([13]; dosage 80 g/ha): 90%; Pre-emergence action against POLCO in % ([2]; dosage 80 g/ha): 80%; Pre-emergence action against SETVI in % (Setaria viridis (SETVI) [14]; dosage 80 g/ha): 90%; Post-emergence action against VIOTR in % (Viola tricolor (VIOTR) [21]): 80%; Post-emergence action against PHBPU in % ([6]; dosage 80 g/ha): 90%; Post-emergence action against SETVI in % (Setaria viridis (SETVI) [7]; dosage 80 g/ha): 90%; Pre-emergence action against VERPE in % ([9]; dosage 80 g/ha): 100%; Pre-emergence action against AMARE in % ([10]; 80 g/ha): 100%; Post-emergence action against ALOMY in % [20]: 90%; Post-emergence action against MATIN in % [22]: 80%; Post-emergence action against ECHCG in % ([11]; dosage 80 g/ha): 90%
COC(=O)CCOC(=O)COc1nn(-c2ccccn2)c(-c2cncc(F)c2)c1Cl [Example I-75] | 80 | 90 | 100 | 100 |  | 90 | 90 | 90 | 90 | 80 | 100 | 100 | 80 | 20 | 0 | 10 | 80 | 90 | 80 | 80 | Pre-emergence action against MATIN in % ([13]; dosage 80 g/ha): 90%; Post-emergence action against ABUTH in % [23]: 80%; Pre-emergence action against LOLRI in % (Lolium rigidum (LOLRI) [15]; dosage 80 g/ha): 80%; Post-emergence action against ORYSA in % (Oryza sativa (ORYSA); [25]): 0%; Post-emergence action against ZEAMX in % (Zea mays (ZEAMX)): 20%; Post-emergence action against POLCO in % [17]: 90%; Post-emergence action against PHBPU in % ([6]; dosage 80 g/ha): 90%; Post-emergence action against LOLRI in % (Lolium rigidum (LOLRI) [24]): 90%; Post-emergence action against SETVI in % (Setaria viridis (SETVI) [7]; dosage 80 g/ha): 80%; Pre-emergence action against AMARE in % ([10]; 80 g/ha): 80%; Post-emergence action against ALOMY in % [20]: 90%; Post-emergence action against MATIN in % [22]: 90%; Post-emergence action against ECHCG in % ([11]; dosage 80 g/ha): 90%; Pre-emergence action against PHBPU in % ([12]; dosage 80 g/ha): 90%
